Three compounds from patent US11331367B1, “Compounds and methods for inhibiting protozoan parasites” (University of South Florida, priority 2018, dated 2022) can be followed below.

Non-standard residues stand in square brackets, D forms with d. Residues, ends and D or L forms follow the SMILES beside them. *: point of attachment. NMeI = CC[C@H](C)[C@H](NC)C(=O)O; dNMeF = CN[C@H](Cc1ccccc1)C(=O)O; X1 = C(=C/c1c[nH]c2ccccc12)/N*; NMeV = CN[C@H](C(=O)O)C(C)C; NMeA = CN[C@@H](C)C(=O)O Some results are limits rather than exact numbers.

The experiment relates to Plasmodium falciparum liver-stage parasites. The experiment can be described thus: microbe, parasite or virus in culture. The experiment is classed as cell-based. The following applies: for inhibition of P. falciparum liver-stage development (in words): in vitro liver model, drug treatment at 10 μM. As for the experimental part: Bioactivity of friomaramide was evaluated for inhibition of Plasmodium falciparum liver-stage parasites and primary human hepatocyte (PHH) toxicity using an in vitro liver model. In brief, cryopreserved PHHs were seeded at 1.8×10^4 cells per well in a 384-well microplate. Freshly isolated P. falciparum sporozoites were inoculated at 2.0×10^4 per well with subsequent drug treatment at 10 μM. Media was changed daily with fresh addition of drug for 3 days until experiment fixation on day 6.

One may read the inhibition as the drop in the measured response relative to a control, in per cent. Turning to `COc1cc(NC(C)CCCN)c2ncccc2c1` (stereo not drawn) [primaquine], the inhibition at 10 µM (Plasmodium falciparum, Hepatocyte, read-out: inhibition of P. falciparum liver-stage growth) was more than 90%. As for `C[C@H]1[C@@H](O)O[C@@H]2O[C@@]3(C)CC[C@H]4[C@H](C)CC[C@@H]1[C@@]24OO3` [DHA], the “inhibition of P. falciparum liver-stage development (in words)” value was “does not inhibit”. Regarding `CC[C@H](C)[C@@H](C(=O)N/C=C\c1c[nH]c2ccccc12)N(C)C(=O)[C@H]([C@@H](C)CC)N(C)C(=O)[C@H](C)N(C)C(=O)[C@H](C(C)C)N(C)C(=O)[C@@H](Cc1ccccc1)N(C)C(C)=O` [friomaramide] (Ac-[dNMeF][NMeV][NMeA][NMeI][NMeI]-X1), the “inhibition of P. falciparum liver-stage development (in words)” value is “block sporozoite invasion and subsequent liver-stage parasite development”.
